20 molecules from patent publication EP0433759A1, “4-Substituted alkyl carbapenem antibiotics” (Bristol-Myers Squibb Company, priority 1989, dated 1991) can be followed below.

Converted amounts (≈) assume the structure as drawn. Structures can show the parent of a compound that is named as a salt.

For data set [1], the system named is Pseudomonas aeruginosa, A9843. Nature of the data set: In vitro antibacterial activity (MIC), serial 2-fold dilution. The following applies: Pseudomonas aeruginosa A9843; Mueller-Hinton; 37°C, 17 h; read-out: Antibacterial Activity MIC P. aer. Type of data set: cell-based. Here is the method:
(§1) In vitro antibacterial activity was determined by serial 2-fold dilution of the compound in Mueller-Hinton agar and inoculation of the agar surface or broth with an appropriately diluted 18-24 h broth culture.

Data set [2] deals with Streptococcus pneumoniae, A9585. Described as above. The following applies: Streptococcus pneumoniae A9585; Mueller-Hinton; 37°C, 17 h; read-out: Antibacterial Activity MIC S. pn. Type of data set: cell-based. Here is the method:
as §1

For another data set, the system named is Escherichia coli, A15119. The description is as above. In kind it is cell-based. The following applies: Escherichia coli A15119; Mueller-Hinton; 37°C, 17 h; read-out: Antibacterial Activity MIC E. coli. Here is the method:
as §1

A short description of data set [3]: Chemical stability in aqueous solution (half-life). The following applies: 37°C, 10^-4 M, pH 7.4, aqueous solution; read-out: Half-life (T 1/2) (converted). Type of data set: physicochemical. Here is the method: These values were determined by the method of Woodward et al, J. Am. Chem. Soc., 102, 2042 (1980)

For `C[C@@H](O)[C@H]1C(=O)N2C(C(=O)O)=C(SCCCC#N)[C@H](CCN)[C@H]12` [Example 47, (4R,5S,6S)-4-(2"-Aminoethyl)-3-[(3-cyanopropyl)thio]-6-[(1'R)-l'-hydroxyethyl]-7-oxo-1-azabicyclo[3.2.0]hept-2-ene-2-carboxylic acid], the MIC in data set [1] stood at 1 µg/mL (≈ 2.95 µM); in data set [2] it was 0.5 µg/mL (≈ 1.47 µM); with Escherichia coli, A15119, 0.03 µg/mL (≈ 0.0884 µM). Besides, the half-life at 100 µM in data set [3] is 2.5 h.
The matching figures for `C[C@@H](O)[C@H]1C(=O)N2C(C(=O)O)=C(SCCC#N)[C@H](CCCN)[C@H]12` [Example 41, (4R-5S,6S)-4-(3"-Aminopropyl)-3-[(2-cyanoethy!)thio]-6-[(1'R)-1'-hydroxyethyl]-7-oxo-1-azabicyclo[3.2.0]hept-2-ene-2-carboxylic acid]: 0.5 µg/mL (≈ 1.47 µM), 0.25 µg/mL (≈ 0.737 µM), 0.008 µg/mL (≈ 0.0236 µM) and 70 h.
Turning to `C[C@@H](O)[C@H]1C(=O)N2C(C(=O)O)=C(SCCC#N)[C@H](CCN)[C@H]12` [Example 36, (4R,5S,6S)-4-(2"-Aminoethyl)-3-[(2-cyanoethyl)thio]-6-[(1'R)-1'-hydroxyethyl]-7-oxo-1-azabicyclo[3.2.0]hept-2-ene-2-carboxylic acid], the MIC is 0.25 µg/mL (≈ 0.768 µM) in data set [1]; 0.13 µg/mL (≈ 0.4 µM) in data set [2]; 0.008 µg/mL (≈ 0.0246 µM) in the data set with Escherichia coli, A15119. For the same molecule, the half-life at 100 µM in data set [3] was 3.8 h.
The corresponding values for `CSC1=C(C(=O)O)N2C(=O)[C@H]([C@@H](C)O)[C@H]2[C@H]1CCCCN` [Example 92, (4R,5S,6S)-4-(4"-Aminobutyl)-6-(1'R)-1'-hydroxyethyl-3-methylthio-7-oxo-1-azabicyclo[3.2.0]hept-2-ene-2-carboxylic acid] are 2 µg/mL (≈ 6.36 µM), 2 µg/mL (≈ 6.36 µM), 0.06 µg/mL (≈ 0.191 µM) and 247 h.
With `CNCCC[C@H]1C(SCCC#N)=C(C(=O)O)N2C(=O)[C@H]([C@@H](C)O)[C@@H]12` [Example 154, (4R,5S,6S)-3-[(2-Cyanoethyl]thio]-6-[(1'R]-1'-hydroxyethyl]-4-(3"-N-methylaminopropyl)-7-oxo-1-azabicyclo[3.2.0]hept-2-ene-2-carboxylic acid], the MIC in data set [1] came out at 1 µg/mL (≈ 2.83 µM); in data set [2], 0.5 µg/mL (≈ 1.41 µM); in the data set with Escherichia coli, A15119, 0.25 µg/mL (≈ 0.707 µM). Also, in data set [3], the half-life at 100 µM is 79 h.
Take `C[C@@H](O)[C@H]1C(=O)N2C(C(=O)O)=C(SCCC#N)[C@H](CCN3CCOCC3)[C@H]12` [Example 49, (4R,5S,6S)-3-[(2-Cyanoethyl)thio]-6-[(1'R)-1'-hydroxyethyl]--4-[2"-(N-morpholino)ethyl]-7-oxo-1-azabicyclo-[3.2.0]hept-2-ene-2-carboxylic acid]: the MIC is 63 µg/mL (≈ 159 µM) in data set [1]; 0.008 µg/mL (≈ 0.0202 µM) in data set [2]; 0.03 µg/mL (≈ 0.0759 µM) in the data set on Escherichia coli, A15119. Moreover, the half-life at 100 µM in data set [3] is 33.5 h.
For the molecule `C[C@@H](O)[C@H]1C(=O)N2C(C(=O)O)=C(SCc3cccnc3)[C@H](CCN)[C@H]12` [Example 24, (4R,5S,6S)-4-(2"-Aminoethyl)-6-[(1'R)-1'-hydroxyethyl]-3-[(pyridin-3-yl)methyithio]-7-oxo-1-azabicyclo[3.2.0]-hept-2-ene-2-carboxylic acid], the MIC in data set [1] is 1 µg/mL (≈ 2.75 µM); in data set [2], 0.13 µg/mL (≈ 0.358 µM); in the data set on Escherichia coli, A15119, 0.016 µg/mL (≈ 0.044 µM). Further, the half-life at 100 µM in data set [3] is 3.5 h.
Regarding `C[C@@H](O)[C@H]1C(=O)N2C(C(=O)O)=C(SCCN)[C@H](CCCN)[C@H]12` [Example 117, (4R,5S,6S)-4-(3"-Aminopropyl)-3-[(2-aminoethyl)thio]-6-[(1'R)-1'-hydroxyethyl]-7-oxo-1-azabicyclo[3.2.0]hept-2-ene-2-carboxylic acid, acetic acid_salt], the MIC turned out to be 0.25 µg/mL in data set [1]; 0.13 µg/mL in data set [2]; 0.13 µg/mL with Escherichia coli, A15119. Moreover, the half-life at 100 µM in data set [3] is 33 h.
In the case of `C[C@@H](O)[C@H]1C(=O)N2C(C(=O)O)=C(SCCC#N)[C@H](CCCCCN)[C@H]12` [Example 121], the MIC came out at 1 µg/mL (≈ 2.72 µM) in data set [1]; 0.13 µg/mL (≈ 0.354 µM) in data set [2]; 0.004 µg/mL (≈ 0.0109 µM) with Escherichia coli, A15119. Further, the half-life at 100 µM in data set [3] is 136 h.
On to `C[C@@H](O)[C@H]1C(=O)N2C(C(=O)O)=C(SCc3csnn3)[C@H](CCNC(=N)N)[C@H]12` [Example 40, (4R,5S.6S)-4-(2"-Guanidinoethyl)-6-[(1'R)-1'-hydroxyethyl]-3-[(1,2.3-thiadiazol-4-yl)methyithio]-7-oxo-1-azabicyclo-[3.2.0]hept-2-ene-2-carboxylic acid], for which the MIC worked out at 1 µg/mL (≈ 2.42 µM) in data set [1]; 0.06 µg/mL (≈ 0.145 µM) in data set [2]; 0.008 µg/mL (≈ 0.0194 µM) in the data set on Escherichia coli, A15119. Besides, the half-life at 100 µM in data set [3] is 32.5 h.
As to `C[C@@H](O)[C@H]1C(=O)N2C(C(=O)O)=C(SCCC#N)[C@H](CCNC(=N)N)[C@H]12` [Example 73, (4R,5S,6S)-3-[(2-Cyanoethyl)thio]-4-(2"-guanidinoethyl)-6-[(1'R)-1'-hydroxyethyl]-7-oxo-1-azabicyclo[3.2.0]-hept-2-ene-2-carboxylic acid], the MIC in data set [1] is 0.25 µg/mL (≈ 0.68 µM); in data set [2], 0.03 µg/mL (≈ 0.0816 µM); with Escherichia coli, A15119 it was 0.008 µg/mL (≈ 0.0218 µM). The half-life at 100 µM in data set [3] is 37 h.
As for `C[C@@H](O)[C@H]1C(=O)N2C(C(=O)O)=C(SCCOC(N)=O)[C@H](CCCCNC(=N)N)[C@H]12` [Example 100, (4R.5S,6S)-3-[(2-Carbamoyloxyethyl)thio)-4-(4"-guanidinobutyl)-6-[(1'R)-1'-hydroxyethyl]-7-oxo-1-azabicyclo-[3.2.0]-hept-2-ene-2-carboxylic acid], the MIC in data set [1] is 2 µg/mL (≈ 4.66 µM); in data set [2], 0.25 µg/mL (≈ 0.582 µM); with Escherichia coli, A15119 it was 0.008 µg/mL (≈ 0.0186 µM). For the same molecule, the half-life at 100 µM in data set [3] was 180 h.
As for `C[C@@H](O)[C@H]1C(=O)N2C(C(=O)O)=C(SCCNC(=N)N)[C@H](CCNC(=N)N)[C@H]12` [Example 135, (4R,5S,6S)-4-(2"-Guanidinoethyl)-3-[(2-guanidinoethyl)-thio]-6-[(1'R)-1'-hydroxyethyl]-7-oxo-1-azabicyclo-[3.2.0]hept-2-ene-2-carboxylic acid, acetic acid salt], the MIC was determined as 0.06 µg/mL in data set [1]; 0.03 µg/mL in data set [2]; 0.015 µg/mL in the data set with Escherichia coli, A15119. In addition, in data set [3], the half-life at 100 µM is 37 h.
The matching figures for `C[C@@H](O)[C@H]1C(=O)N2C(C(=O)[O-])=C(SCCC#N)[C@H](CC[n+]3ccccc3)[C@H]12` [Example 136, (4R,5S,6S)-3-[(2-Cyanoethyl)thio]-6-[(1'R)-1'-hydroxyethyl]-4-[2"-(1-pyridinium)ethyl]7-oxo-1-azabicyclo-[3.2.0]hept-2-ene-2-carboxylate]: 4 µg/mL (≈ 10.3 µM), 0.015 µg/mL (≈ 0.0387 µM), 0.007 µg/mL (≈ 0.0181 µM) and 17 h.
In the case of `C[C@@H](O)[C@H]1C(=O)N2C(C(=O)O)=C(SCCC#N)[C@H](CCN(C)CCC#N)[C@H]12` [Example 124, (4R,5S,6S)-3-[(2-Cyanoethyl)thio]-4-[2"-[N,N-(2-cyanoethyl)methylamino]ethy!]-6-[(1'R)-1'-hydroxyethyl]-7-oxo-1-azabicyclo[3.2.0]hept-2-ene-2-carboxylic acid], the MIC was found to be 2 µg/mL (≈ 5.1 µM) in data set [1]; 0.016 µg/mL (≈ 0.0408 µM) in data set [2]; 0.03 µg/mL (≈ 0.0764 µM) in the data set on Escherichia coli, A15119. The half-life at 100 µM in data set [3] was 21 h.
The corresponding values for `C[C@@H](O)[C@H]1C(=O)N2C(C(=O)O)=C(SCc3ccncc3)[C@H](CCCN)[C@H]12` [Example 44] are 8 µg/mL (≈ 21.2 µM), 0.03 µg/mL (≈ 0.0795 µM), 0.03 µg/mL (≈ 0.0795 µM) and 89 h.
For `C[C@@H](O)[C@H]1C(=O)N2C(C(=O)O)=C(SCCC#N)[C@H](CCSCCN)[C@H]12` [Example 131, (4R,5S,6S)-4-(2"-(2-Aminoethylthio)ethyl]-3-[(2-cyanoethylthio]-6-[(1'R)-1'-hydroxyethy)]-7-oxo-1-azabicyclo-[3.2.0]-hept-2-ene-2-carboxylic acid], the MIC in data set [1] was determined as 2 µg/mL (≈ 5.19 µM); in data set [2] it was 0.25 µg/mL (≈ 0.648 µM); in the data set with Escherichia coli, A15119, 0.13 µg/mL (≈ 0.337 µM). Further, in data set [3], the half-life at 100 µM was 46 h.
In the case of `C[C@@H](O)[C@H]1C(=O)N2C(C(=O)O)=C(SCCC#N)[C@H](CCN3CCCC3)[C@H]12` [Example 63, (4R,5S,6S)-3-[(2-cyanoethyl)thio]-6-[(1'R)-1'-hydroxyethyl]-4-[2"-(1-pyrrolidinyl)-ethyl]-7-oxo-1-azabicyclo[3.2.0]hept-2-ene-2-carboxylic acid], the MIC in data set [1] was 1 µg/mL (≈ 2.64 µM); in data set [2] it was 0.008 µg/mL (≈ 0.0211 µM); in the data set with Escherichia coli, A15119 it was 0.016 µg/mL (≈ 0.0422 µM). For the same molecule, the half-life at 100 µM in data set [3] was 18 h.
Take `C[C@@H](O)[C@H]1C(=O)N2C(C(=O)O)=C(SCCO)[C@H](CCCNC=N)[C@H]12` [Example 32, (4R,5S,6S)-4-[3"-[N-Formimidoyl)aminopropyl]-6-[(1'R)-1'-hydroxyethyl]-3-[(2-hydroxyethyl)thio]-7-oxo-1-azabicyclo [3.2.0]hept-2-ene-2-carboxylic acid]: the MIC stood at 0.25 µg/mL (≈ 0.699 µM) in data set [1]; 0.25 µg/mL (≈ 0.699 µM) in data set [2]; 0.004 µg/mL (≈ 0.0112 µM) with Escherichia coli, A15119. Besides, the half-life at 100 µM in data set [3] is 76 h.
On to `C[C@@H](O)[C@H]1C(=O)N2C(C(=O)O)=C(SCCC#N)[C@H](CCN3CCN(C)CC3)[C@H]12` [Example 126, (4R,5S,6S)-3-[(2-Cyanoethyl)thio]-6-[(1'R)-1'-hydroxyethyl]-4-[2"(4-methylpiperazine-1-yl)ethyl]-7-oxo-1-azabicyclo[3.2.0]hept-2-ene-2-carboxylic acid], for which the MIC in data set [1] stood at 2 µg/mL (≈ 4.9 µM); in data set [2] it was 0.016 µg/mL (≈ 0.0392 µM); with Escherichia coli, A15119 it was 0.008 µg/mL (≈ 0.0196 µM). The half-life at 100 µM in data set [3] is 47 h.

The term MIC denotes the smallest concentration in the dilution series that meets the test's criterion for growth inhibition.
